Test results from patent US12291607B2, “Polymer material and method for producing same” (Osaka University, priority 2019, dated 2025).

Assay: Solubility of host (Ac-CDAA) and guest (ADAA) monomers in third polymerizable monomers
Format: physicochemical
Method: The phrase “the host group-containing polymerizable monomer and the guest group-containing polymerizable monomer are dissolved in the third polymerizable monomer” means that the mixture of the host group-containing polymerizable monomer and the guest group-containing polymerizable monomer in a total amount of 1 part by weight or more is dissolved per 100 parts by weight of the third polymerizable monomer at a temperature of 20° C. It is preferable that the mixture of the host group-containing polymerizable monomer and the guest group-containing polymerizable monomer in a total amount of 1 part by weight or more, and particularly preferably 10 parts by weight or more, is dissolved per 100 parts by weight of the third polymerizable monomer at a temperature of 20° C.
The solubility of Ac-CDAA (host group-containing polymerizable monomer) in the following various monomers (third polymerizable monomers) was as follows: • less than 1 g for 100 g of 2EHA (20° C.) • less than 1 g for 100 g of OctA (octyl acrylate) (20° C.) • 10 g or more for 100 g of 2MEA (20° C.) • 10 g or more for 100 g of 4HBA (20° C.) • 10 g or more for 100 g of DMAA (20° C.)
Further, the solubility of ADAA (guest group-containing polymerizable monomer) in the following various monomers (third polymerizable monomers) was as follows: • less than 1 g for 100 g of 2EHA (20° C.) • less than 1 g for 100 g of OctA (20° C.) • 10 g or more for 100 g of 2MEA (20° C.) • 10 g or more for 100 g of 4HBA (20° C.) • 10 g or more for 100 g of DMAA (20° C.)

## C=CC(=O)NC12CC3CC(CC(C3)C1)C2 [ADAA, N-(1-adamantyl) acrylamide]
For 100 g of 2EHA (20° C.)
  solubility in 2EHA: less than 1 g
For 100 g of 2MEA (20° C.)
  solubility in 2MEA: ≥ 10 g
For 100 g of 4HBA (20° C.)
  solubility in 4HBA: ≥ 10 g
For 100 g of DMAA (20° C.)
  solubility in DMAA: ≥ 10 g
For 100 g of OctA (octyl acrylate) (20° C.)
  solubility in OctA: less than 1 g
